pIC50: −log10 of the molar value.
Experiments:
[1] = system: Daoy (medulloblastoma), IMR32 (neuroblastoma) and KNS42 (glioblastoma) cells; test: Proliferation / survival of brain cancer cells (FIGS. 1A-1C); format: cell-based
Text: Moxidectin treatment suppresses the proliferation of brain cancer cells.

[2] = system: Daoy, UW228, ONS76, UW246, PFSK1 (medulloblastoma), IMR32, SF268, SF295 (glioblastoma), SK-N-AS (neuroblastoma) cells; test: Proliferation / survival of brain cancer cell line panel (FIGS. 5A-5I); format: cell-based
[3] = system: Daoy, KNS42 and IMR32 brain cancer cells; test: Annexin V/FITC apoptosis assay (FIGS. 2A-2C); format: cell-based
Description: The percentage of apoptotic cells with 20 µM moxidectin treatment ranged from 90-100% in all the brain cancer cell lines tested (FIGS. 2A-2C).
Induction of apoptosis by moxidectin. The mode of cell death caused by moxidectin treatment was determined by Annexin V/FITC assay in Daoy, KNS42 and IMR32 brain cancer cells. […] 15 µM moxidectin induced -80% apoptosis in Daoy, KNS42 and IMR32 brain cancer cell lines. The percentage of apoptotic cells with 20 µM moxidectin treatment ranged from 90-100% in all the brain cancer cell lines tested (FIGS. 2A-2C). Induction of apoptosis by moxidectin treatment in these cell lines was further assessed by increase in the cleavage of caspase 3 and PARP (FIG. 3).

[4] = system: Daoy, UW228, ONS76, UW426, PFSK1 and IMR32 brain cancer cells; test: Annexin V/FITC apoptosis assay (FIGS. 6A-6F); format: cell-based
Description: (§1) The mode of cell death caused by moxidectin treatment was determined by Annexin V/FITC assay in Daoy, UW228, ONS76, UW426, PFSK1 and IMR32 brain cancer cells (FIGS. 6A-6F, resepectively). […] 15 µM moxidectin induced -80% apoptosis in Daoy and IMR32 brain cancer cell lines. The percentage of apoptotic cells with 20 µM moxidectin treatment ranged from 90-100% in all the brain cancer cell lines. Induction of apoptosis by moxidectin treatment in these cell lines was further assessed by increase in the cleavage of caspase 3 and PARP (FIG. 3).
as §1, with “FIGS. 6A-6F show the induction of apoptosis by moxidectin. The mode” for “The mode”, “PARP (FIG. 7).” for “PARP (FIG. 3).”

Janus Kinase 2 (JAK2) = test: Western blotting of JAK2 in treated brain cancer cells; format: cell-based; conditions: Daoy, IMR32, KNS42, 0, 10, 15 and 20 µM, 48 hours
Description: Daoy, IMR32, and KNS42 cells were treated with 0, 10, 15 and 20 µM moxidectin for 48 hours and evaluated by western blotting.
(§2) Moxidectin inhibits JAK-STAT signaling. In order to delineate the mechanism by which moxidectin mediates its anti-cancer effects in brain cancer cell lines, Daoy, IMR32, and KNS42 cells were treated with 0, 10, 15 and 20 µM moxidectin for 48 hours and evaluated by western blotting. […] It has been reported that, upon activation (phosphorylation) JAK2 activates multiple downstream transcription factors one of which is STAT3. Hyper activation of STAT3 in cancer cells is strongly attributed to evasion of apoptosis and transcriptional activation of anti-apoptotic proteins such as Bcl-2 and c-myc.
(§3) It has been reported that, upon activation (phosphorylation) JAK2 activates multiple downstream transcription factors one of which is STAT3. Hyperactivation of STAT3 in cancer cells is strongly attributed to evasion of apoptosis and transcriptional activation of anti-apoptotic proteins such as Bcl-2 and c-myc.

STAT3 = test: Western blotting of STAT3 phosphorylation in treated brain cancer cells; format: cell-based; conditions: Daoy, IMR32, KNS42; 0, 10, 15 and 20 µM, 48 hours
Description: as §2, §3

Bcl-2 = test: Western blotting of Bcl-2 expression in treated brain cancer cells; format: cell-based; conditions: Daoy, IMR32 and KNS42; 48 hours
Description: as §2
(§4) Moreover, moxidectin increased the cleavage of caspase 3 and PARP as an indication of apoptosis, a primary mode of cell death (FIG. 3).
(§5) Moreover, moxidectin increased the cleavage of caspase 3 and PARP as an indication of apoptosis, a primary mode of cell death (FIG. 7).

caspase 3 and PARP = test: Western blotting of caspase 3 and PARP cleavage in treated brain cancer cells; format: cell-based; conditions: Daoy, IMR32 and KNS42; 48 hours
Description: as §2, §4, §5

[5] = system: Daoy cells (medulloblastoma); test: Subcutaneously implanted Daoy tumor growth in mice; format: in vivo; conditions: subcutaneous Daoy
Description: (§6) Moxidectin suppresses the growth of subcutaneously implanted brain cancer cells. To evaluate the ability of moxidectin in inhibiting the growth of brain tumor cells in vivo, ~ 4 million Daoy cells were injected subcutaneously into the right flank of the mice. Once the tumor cells started growing and the tumor volume reached ~ 70 mm^3, mice were randomized into four groups. Control group received the vehicle whereas the treatment group received 2.5 mg/kg, 5 mg/kg and 10 mg/kg moxidectin once every day. The tumor readings were taken twice a week throughout the course of the experiment using Vernier caliper. […] Similarly, 2.5 mg/kg and 5 mg/kg moxidectin suppressed Daoy tumor growth by 45% and 60% respectively (FIG. 4B).
as §6, with “4C). […] In another experiment, ~0.3 million Daoy luc cells were injected intracranially in the brain of athymic nude mice. The mice were given 2.5 mg/kg for 33 days. Moxidectin was able to inhibit -65% of intracranially implanted medulloblastoma tumors. […] Additionally, ~ 3 million SK-N-AS neuroblastoma cells were injected subcutaneously in the right flank of the mice. Mice were randomized on day 10. Treatment group received 3.5 mg/kg moxidectin. The experiment was terminated on day 23. Moxidectin was able to inhibit 60% of subcutaneously implanted neuroblastoma tumors (FIG. 4D).” for “4B).”

[6] = system: Daoy luc cells (medulloblastoma); test: Intracranially implanted Daoy luc tumors in mice; format: in vivo, athymic nude mice; conditions: 2.5 mg/kg for 33 days; intracranial Daoy luc
[7] = system: SK-N-AS neuroblastoma cells; test: Subcutaneously implanted SK-N-AS neuroblastoma tumors in mice; format: in vivo; conditions: 3.5 mg/kg; randomized day 10, terminated day 23
[8] = varying concentrations, concentration and time-dependent
[9] = treatment for 48 hours, all brain cancer cells

Structure (SMILES): CO/N=C1\C[C@]2(C[C@@H]3C[C@@H](C/C=C(\C)C[C@@H](C)/C=C/C=C4\CO[C@@H]5[C@H](O)C(C)=C[C@@H](C(=O)O3)[C@]45O)O2)O[C@H](/C(C)=C/C(C)C)[C@H]1C [Moxidectin]
- pIC50 ([1]; Daoy, IMR32 and KNS42, 24, 48 and 72-hour time point): 4.80 to 4.96
- survival of cells [1, 8]: significant reduction
- pIC50 ([2]; all brain cancer cell lines, 24, 48 and 72-hour time point): 4.52 to 5.01
- survival of cells [2, 8]: significant reduction
- apoptotic effects ([3]; 10 µM, 48 hours, all three cell lines): minimal apoptotic effects
- apoptosis induced ([3]; 15 µM, 48 hours, Daoy, KNS42 and IMR32): 80%
- percentage of apoptotic cells ([3]; 20 µM, 48 hours, all cell lines tested): 90-100%
- apoptosis [3, 9]: significant increase
- apoptotic effects ([4]; 10 µM, 48 hours, all cell lines tested): minimal apoptotic effects
- apoptosis induced ([4]; 15 µM, 48 hours, Daoy and IMR32): 80%
- percentage of apoptotic cells ([4]; 20 µM, 48 hours, all cell lines): 90-100%
- apoptosis [4, 9]: significant increase
- protein level of JAK2 (Janus Kinase 2 (JAK2)): remained unchanged
- phosphorylation of JAK2 at Tyr1007/1008 (Janus Kinase 2 (JAK2); concentration-dependent): reduced
- phosphorylation of STAT3 at Tyr705 (STAT3): reduced
- expression of anti-apoptotic protein Bcl-2 (Bcl-2): reduced
- cleavage of caspase 3 and PARP (caspase 3 and PARP): increased
- suppression of tumor growth ([5]; 2.5 mg/kg once every day): 45%
- suppression of tumor growth ([5]; 5 mg/kg once every day): 60%
- suppression of tumor growth ([5]; 10 mg/kg once every day): 90%
- inhibition of intracranially implanted tumors [6]: 65%
- inhibition of subcutaneously implanted neuroblastoma tumors [7]: 60%
